Measured values taken from patent US7968577B2 (Bristol-Myers Squibb Company, priority 2006, dated 2011).

System: AP-1 induced transcriptional activity
Experiment: Cellular Transrepressional Assay: AP-1 luciferase reporter in PMA-activated A549 cells
Type: cell-based
Conditions: for Emax: A549, 7 h, read-out: AP-1 Max % inh (Cellular Transrepression Assay)
Procedure: Cellular Transrepressional Assay
To measure the ability of test molecules to inhibit AP-1 induced transcriptional activity we utilized an A549 cell which was stably transfected with a plasmid containing 7× AP-1 DNA binding sites (pAP-1-Luc plasmid, Stratagene Co. La Jolla, Calif.) followed by the gene for luciferase. Cells were activated with 10 ng/ml of […] (PMA) plus or minus test molecules for 7 hours. After 7 hours a luciferase reagent was added to measure luciferase enzymatic activity in the cell. After a 10 minute incubation of luciferase reagent with cells, luminescence was measured in a TopCount luminescence counter. Repression of AP-1 activity was calculated as the percentage decrease in the signal induced by PMA alone. Test molecules were analyzed in the concentration range from 0.1 nM to 40 μM. EC50s were determined by using standard curve fitting methods such as Excel fit (Microsoft Co.).

[1] = Homo sapiens, maximum inhibition, Cellular Transrepression Assay
[2] = Homo sapiens, A549, Cellular Transrepression Assay

Compound	Emax [1] [%]	EC50 [2] [nM]	EC50 (Cellular Transrepression Assay) [nM]	AP-1 Max % inh (Cellular Transrepression Assay) (maximum inhibition, Cellular Transrepression Assay) [%]
Cc1csc(NC(=O)C(C)(C)C(c2ccccc2)c2cccc(O)c2)n1 (stereo not shown) [Example 198, 3-(3-hydroxyphenyl)-2,2-dimethyl-N-(4-methyl-1,3-thiazol-2-yl)-3-phenylpropanamide]	25.8	–	–	–
Cc1cnc(NC(=O)C(C)(C)C(c2ccccc2)c2cccc(O)c2)s1 (stereo not shown) [Example 199, 3-(3-hydroxyphenyl)-2,2-dimethyl-N-(5-methyl-1,3-thiazol-2-yl)-3-phenylpropanamide]	31.1	–	–	–
CC(C)(C(=O)Nc1nc(CCc2ccccc2)cs1)C(c1ccccc1)c1cccc(O)c1 (stereo not shown) [Example 203, 3-(3-hydroxyphenyl)-2,2-dimethyl-3-phenyl-N-(4-(2-phenylethyl)-1,3-thiazol-2-yl)propanamide]	35.1	–	–	–
CCOC(=O)c1sc(NC(=O)C(C)(C)C(c2ccccc2)c2cccc(O)c2)nc1C (stereo not shown) [Example 206, ethyl 2-((3-(3-hydroxyphenyl)-2,2-dimethyl-3-phenylpropanoyl)amino)-4-methyl-1,3-thiazole-5-carboxylate]	37.7	–	–	–
CC(C)(C(=O)Nc1nccs1)C(c1ccccc1)c1ccc(O)cc1 (stereo not shown) [Example 209, 3-(4-hydroxyphenyl)-2,2-dimethyl-3-phenyl-N-1,3-thiazol-2-ylpropanamide]	46.9	86.5	–	–
CC(C)(C(=O)Nc1nc(-c2cccc3ccccc23)cs1)C(c1ccccc1)c1ccc(O)cc1 (stereo not shown) [Example 217, 3-(4-hydroxyphenyl)-2,2-dimethyl-N-(4-(1-naphthalenyl)-1,3-thiazol-2-yl)-3-phenylpropanamide]	35	516	–	–
CCOC(=O)c1sc(NC(=O)C(C)(C)C(c2ccccc2)c2ccc(O)cc2)nc1C (stereo not shown) [Example 218, ethyl 2-((3-(4-hydroxyphenyl)-2,2-dimethyl-3-phenylpropanoyl)amino)-4-methyl-1,3-thiazole-5-carboxylate]	38	–	–	–
CC(C)(C(=O)Nc1nc2ccc(Cl)cc2s1)C(c1ccccc1)c1ccc(O)cc1 (stereo not shown) [Example 220, N-(6-chloro-1,3-benzothiazol-2-yl)-3-(4-hydroxyphenyl)-2,2-dimethyl-3-phenylpropanamide]	36.2	–	–	–
CC(C)(C(=O)Nc1nc(Cc2ccc(-c3ccncc3)cc2)cs1)C(c1ccccc1)c1ccc(N2CCOCC2)cc1 (stereo not shown) [Example 223, 2,2-dimethyl-3-(4-(4-morpholinyl)phenyl)-3-phenyl-N-(4-((4-(4-pyridinyl)phenyl)methyl)-1,3-thiazol-2-yl)propanamide]	70.8	88.1	–	–
CC(C)(C(=O)Nc1nccs1)C(c1ccccc1)c1ccc(N2CCOCC2)cc1 (stereo not shown) [Example 224, 2,2-dimethyl-3-(4-(4-morpholinyl)phenyl)-3-phenyl-N-1,3-thiazol-2-ylpropanamide]	33.8	161	–	–
CC(C)(C(=O)Nc1nncs1)C(c1ccccc1)c1ccc(N2CCOCC2)cc1 (stereo not shown) [Example 225, 2,2-dimethyl-3-(4-(4-morpholinyl)phenyl)-3-phenyl-N-1,3,4-thiadiazol-2-ylpropanamide]	34.3	–	114	–
Cc1ccc(C(c2ccc(N3CCOCC3)cc2)C(C)(C)C(=O)Nc2nccs2)cc1 (stereo not shown) [Example 227, 2,2-dimethyl-3-(4-methylphenyl)-3-(4-(4-morpholinyl)phenyl)-N-1,3-thiazol-2-ylpropanamide]	43.7	666	–	–
CC(C)(C(=O)Nc1nccs1)C(c1ccc(N2CCOCC2)cc1)c1cccc(F)c1 (stereo not shown) [Example 228, 3-(3-fluorophenyl)-2,2-dimethyl-3-(4-(4-morpholinyl)phenyl)-N-1,3-thiazol-2-ylpropanamide]	36.9	33.5	–	–
CC(C)(C(=O)Nc1nncs1)C(c1ccc(N2CCOCC2)cc1)c1cccc(F)c1 (stereo not shown) [Example 229, 3-(3-fluorophenyl)-2,2-dimethyl-3-(4-(4-morpholinyl)phenyl)-N-1,3,4-thiadiazol-2-ylpropanamide]	44.2	18.6	–	–
Cc1cccc(C(c2ccc(N3CCOCC3)cc2)C(C)(C)C(=O)Nc2nccs2)c1 (stereo not shown) [Example 234, 2,2-dimethyl-3-(3-methylphenyl)-3-(4-(4-morpholinyl)phenyl)-N-1,3-thiazol-2-ylpropanamide]	39	573	–	–
CC(C)(C(=O)Nc1nncs1)C(c1ccccc1)c1ccc(N2CCCCC2)cc1 (stereo not shown) [Example 236, 2,2-dimethyl-3-phenyl-3-(4-(1-piperidinyl)phenyl)-N-1,3,4-thiadiazol-2-ylpropanamide]	38.5	151	–	–

Compound	Emax [1] [%]	EC50 [2] [nM]	EC50 (Cellular Transrepression Assay) [nM]	AP-1 Max % inh (Cellular Transrepression Assay) (maximum inhibition, Cellular Transrepression Assay) [%]
CC(C)(C(=O)Nc1nncs1)C(c1ccccc1)c1ccc(N2CCOCC2)cc1 (stereo not shown) [Example 260, 2,2-dimethyl-3-(4-(4-morpholinyl)phenyl)-3-phenyl-N-1,3,4-thiadiazol-2-ylpropanamide]	–	–	4.06	35.64
CCOC(=O)c1csc(NC(=O)C(C)(C)[C@H](c2ccccc2)c2ccc(OC)cc2)n1 [Example 264, ethyl 2-((2,2-dimethyl-3-(4-(methyloxy)phenyl)-3-phenylpropanoyl)amino)-1,3-thiazole-4-carboxylate]	58.6	772	–	–
COc1ccc([C@@H](c2ccccc2)C(C)(C)C(=O)Nc2nncs2)cc1 [Example 276, (3R)-2,2-dimethyl-3-(4-(methyloxy)phenyl)-3-phenyl-N-1,3,4-thiadiazol-2-ylpropanamide]	34	190	–	–
COc1ccc(Cc2csc(NC(=O)C(C)(C)C(c3ccccc3)c3ccc(OC)cc3)n2)cc1 (stereo not shown) [Example 288, 2,2-dimethyl-3-(4-(methyloxy)phenyl)-N-(4-((4-(methyloxy)phenyl)methyl)-1,3-thiazol-2-yl)-3-phenylpropanamide]	62.2	216	–	–
COc1ccc(C(c2ccccc2)C(C)(C)C(=O)Nc2nc(Cc3ccc(-c4ccncc4)cc3)cs2)cc1 (stereo not shown) [Example 289, 2,2-dimethyl-3-(4-(methyloxy)phenyl)-3-phenyl-N-(4-((4-(4-pyridinyl)phenyl)methyl)-1,3-thiazol-2-yl)propanamide]	71.6	18.5	–	–
COc1ccc(Cc2csc(NC(=O)C(C)(C)C(c3ccccc3)c3ccccc3)n2)cc1 [Example 297, 2,2-dimethyl-N-(4-((4-(methyloxy)phenyl)methyl)-1,3-thiazol-2-yl)-3,3-diphenylpropanamide]	77.3	262	–	–
COc1ccc(Cc2csc(NC(=O)C(C)(C)C(c3ccccc3)c3cccc(OC)c3)n2)cc1 (stereo not shown) [Example 298, 2,2-dimethyl-3-(3-(methyloxy)phenyl)-N-(4-((4-(methyloxy)phenyl)methyl)-1,3-thiazol-2-yl)-3-phenylpropanamide]	78.7	417	–	–
CC(C)(C(=O)Nc1nc(Cc2ccc(-c3ccncc3)cc2)cs1)C(c1ccccc1)c1ccccc1 [Example 299, 2,2-dimethyl-3,3-diphenyl-N-(4-((4-(4-pyridinyl)phenyl)methyl)-1,3-thiazol-2-yl)propanamide]	69.3	13.3	–	–
CC(C)(C(=O)Nc1nc(Cc2ccc(-c3ccncc3)cc2)cs1)C(c1ccccc1)c1ccc(Br)cc1 (stereo not shown) [Example 300, 3-(4-bromophenyl)-2,2-dimethyl-3-phenyl-N-(4-((4-(4-pyridinyl)phenyl)methyl)-1,3-thiazol-2-yl)propanamide]	73.7	9.97	–	–
CC(C)(C(=O)Nc1nc(Cc2ccc(-c3ccncc3)cc2)cs1)C(c1ccccc1)c1ccc(Cl)cc1 (stereo not shown) [Example 301, 3-(4-chlorophenyl)-2,2-dimethyl-3-phenyl-N-(4-((4-(4-pyridinyl)phenyl)methyl)-1,3-thiazol-2-yl)propanamide]	73.7	10.2	–	–
CC(C)(C(=O)Nc1nc(Cc2ccc(-c3ccncc3)cc2)cs1)C(c1ccccc1)c1ccc(F)cc1 (stereo not shown) [Example 302, 3-(4-fluorophenyl)-2,2-dimethyl-3-phenyl-N-(4-((4-(4-pyridinyl)phenyl)methyl)-1,3-thiazol-2-yl)propanamide]	76.8	33.3	–	–
CC(C)(C)c1ccc(C(c2ccccc2)C(C)(C)C(=O)Nc2nc(Cc3ccc(-c4ccncc4)cc3)cs2)cc1 (stereo not shown) [Example 303, 3-(4-(1,1-dimethylethyl)phenyl)-2,2-dimethyl-3-phenyl-N-(4-((4-(4-pyridinyl)phenyl)methyl)-1,3-thiazol-2-yl)propanamide]	75.7	16.6	–	–
COc1ccc(C(c2ccc(OC)cc2)C(C)(C)C(=O)Nc2nc(Cc3ccc(-c4ccncc4)cc3)cs2)cc1 [Example 304, 2,2-dimethyl-3,3-bis(4-(methyloxy)phenyl)-N-(4-((4-(4-pyridinyl)phenyl)methyl)-1,3-thiazol-2-yl)propanamide]	74.5	19.9	–	–
COc1cccc(C(c2ccccc2)C(C)(C)C(=O)Nc2nc(Cc3ccc(-c4ccncc4)cc3)cs2)c1 (stereo not shown) [Example 305, 2,2-dimethyl-3-(3-(methyloxy)phenyl)-3-phenyl-N-(4-((4-(4-pyridinyl)phenyl)methyl)-1,3-thiazol-2-yl)propanamide]	84.2	22.5	–	–
CC(C)(C(=O)Nc1nccs1)[C@@H](c1ccccc1)c1ccc(O)cc1 [Example 325, (3S)-3-(4-hydroxyphenyl)-2,2-dimethyl-3-phenyl-N-1,3-thiazol-2-ylpropanamide]	57.8	53.9	–	–
CC(C)(C(=O)NC1CCCC1)[C@@H](c1ccccc1)c1ccc(O)cc1 [Example 335, (3S)-N-cyclopentyl-3-(4-hydroxyphenyl)-2,2-dimethyl-3-phenylpropanamide]	21.2	9.32	–	–
